Assay results as given in PubChem BioAssay (NCI).
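Protocol summary: plate cells (96-well), add compound at 5 concentrations, incubate 48 h, interpolate endpoints linearly. At the TGI there is no net growth.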

Experiments:
Assay in all cases: growth of human tumour cells (NCI), 48 h
MDA-N = test system: MDA-N
PC-3 prostate = test system: PC-3 prostate
HT29 colon = test system: HT29 colon
OVCAR-8 ovarian = test system: OVCAR-8 ovarian
MDA-MB-435 = test system: MDA-MB-435
HCC-2998 colon = test system: HCC-2998 colon
DU-145 prostate = test system: DU-145 prostate
MCF7 breast = test system: MCF7 breast
MOLT-4 leukemia = test system: MOLT-4 leukemia
SN12C renal = test system: SN12C renal
IGROV1 ovarian = test system: IGROV1 ovarian
NCI/ADR-RES ovarian = test system: NCI/ADR-RES ovarian
HOP-62 NSCLC = test system: HOP-62 NSCLC
SF-268 CNS = test system: SF-268 CNS
LOX IMVI melanoma = test system: LOX IMVI melanoma
KM12 colon = test system: KM12 colon
SNB-19 CNS = test system: SNB-19 CNS
HOP-92 NSCLC = test system: HOP-92 NSCLC
SR leukemia = test system: SR leukemia

| SMILES | TGI (MDA-N) [µM] | TGI (PC-3 prostate) [µM] | TGI (HT29 colon) [µM] | TGI (OVCAR-8 ovarian) [µM] | TGI (MDA-MB-435) [µM] | TGI (HCC-2998 colon) [µM] | TGI (DU-145 prostate) [µM] | TGI (MCF7 breast) [µM] | TGI (MOLT-4 leukemia) [µM] | TGI (SN12C renal) [µM] | TGI (IGROV1 ovarian) [µM] | TGI (NCI/ADR-RES ovarian) [µM] | TGI (HOP-62 NSCLC) [µM] | TGI (SF-268 CNS) [µM] | TGI (LOX IMVI melanoma) [µM] | TGI (KM12 colon) [µM] | TGI (SNB-19 CNS) [µM] | TGI (HOP-92 NSCLC) [µM] | TGI (SR leukemia) [µM] |
| --- | --- | --- | --- | --- | --- | --- | --- | --- | --- | --- | --- | --- | --- | --- | --- | --- | --- | --- | --- |
| CC1(C)Oc2ccc3c(=O)c(-c4ccccc4)c(-c4ccccc4)oc3c2C1C(=O)O (stereo not drawn) | > 100 | > 100 | > 100 | > 100 | > 100 | > 100 | > 100 | > 100 | > 100 | > 100 | > 100 | > 100 | > 100 | > 100 |  |  |  |  |  |
| Cc1cc2nc3c(C#N)c(-c4ccccc4)/c(=C\Nc4ccc(Cl)cc4)c(=O)n3c2cc1C | > 100 | > 100 |  | > 100 | > 100 | > 100 |  | > 100 |  | > 100 |  | > 100 | > 100 | > 100 | > 100 | > 100 | > 100 |  |  |
| CC1(C)O[C@H]([C@H](O)c2nnc3ccc(Cl)nn23)[C@@H]([C@H]2COC(C)(C)O2)O1 | > 100 | > 100 | > 100 | > 100 | > 100 | > 100 | > 100 | > 100 | > 100 | > 100 | > 100 | > 100 | > 100 | > 100 | > 100 | > 100 | > 100 |  |  |
| NC1OC(COC(=O)c2ccccc2)C(O)C(OC(=O)c2ccccc2)C1OC(=O)c1ccccc1 (stereo not drawn) | 46.5 | 58.2 | 32.5 | 37.8 | 46.7 |  | > 100 | 68.2 | 54 | 50.9 | 35.9 | > 100 | 50.2 | 67.4 | 34.7 |  | > 100 | 59.1 |  |
| c1ccc(CSc2ccccc2CN2CCN(Cc3ccccc3SCc3ccccc3)CCN(Cc3ccccc3SCc3ccccc3)CC2)cc1 | 3.02 | 2.52 | 2.42 | 2.67 | 12 | 2.39 | 12.3 | 3.32 | 6.26 | 3.36 |  | 6.85 | 3.82 | 10.3 | 2.75 | 5.26 | 5.19 | 2 |  |
| CCOC(=O)/C(C=Nc1c(C)n(C)n(-c2ccccc2)c1=O)=C(/O)c1ccccc1 | > 100 | > 100 | > 100 |  | > 100 | > 100 | > 100 | > 100 | > 100 | > 100 | > 100 |  | > 100 | > 100 | > 100 | 0.746 | > 100 | > 100 | > 100 |
| CCC(=O)C1(N2CCOCC2)CCN(CCCC(=O)c2ccc(F)cc2)CC1 | > 100 | > 100 | > 100 | > 100 | > 100 | > 100 | > 100 | > 100 | > 100 | > 100 | > 100 | > 100 | > 100 | > 100 | > 100 | > 100 | > 100 |  |  |
| Cc1[nH]n(C2=NCCN2)c(=O)c1C |  | > 100 | > 100 | > 100 | > 100 |  |  | > 100 | > 100 |  | > 100 | > 100 | > 100 | > 100 | > 100 | > 100 | > 100 | > 100 | > 100 |
| O=C(CSc1nnc(Cc2ccccc2)o1)Nc1cccc(Cl)c1 |  |  | > 100 | > 100 |  | > 100 |  |  | > 100 | > 100 | > 100 |  | > 100 | > 100 | > 100 | > 100 | > 100 |  |  |
| CCCCOCn1c(=O)[nH]c(=O)c2ccccc21 | > 100 |  | > 100 | > 100 | > 100 |  | > 100 | > 100 | > 100 | > 100 | > 100 | > 100 |  |  | > 100 | > 100 | 55.5 | > 100 | > 100 |
| Cc1ccc(-c2cc(-c3ccc(Cl)cc3)nc(/N=C3\C(=O)N(CN4CCOCC4)c4ccccc43)n2)cc1 | 37.6 | > 100 | 65.1 | 50.8 | 35 | 34 | > 100 | > 100 | 35.8 | > 100 | 39.3 | > 100 | > 100 | > 100 | 50.5 | 58.5 | 42.2 | 62.7 |  |
| CC1=C(C)CC(C#N)(C#N)C(C#N)(C#N)C1 | > 7.22 | > 10 | > 10 | > 9.66 |  | > 10 | > 10 | > 10 | > 6.09 | > 10 | > 5.87 | > 10 | > 10 | > 10 | > 10 | > 10 | > 10 | > 6.48 | > 5.17 |
| Cc1c(C#N)c(N)[nH]c(=S)c1C#N | > 100 | > 100 | > 100 | > 100 |  | > 100 | > 100 | > 100 | > 100 | > 100 | > 100 |  | > 100 | > 100 | > 100 | > 100 | > 100 |  | > 100 |
| CC1=[N+]([O-])C(C)(C)N(N=O)C1(C)C | > 10 | > 10 | > 10 | > 10 | > 10 | > 10 | > 10 | > 10 | > 10 | > 10 |  | > 10 | > 10 | > 10 |  | > 10 | > 10 | > 10 |  |
| Oc1cccc(-c2ccc3c4c2O[C@H]2c5[nH]c6ccccc6c5C[C@@]5(O)[C@@H](C3)N(CC3CC3)CC[C@]425)c1 | 3.05 | 3.44 | 3.09 | 3.23 | 3.1 |  | 3.36 |  |  | 3.04 | 3.12 | 4.69 |  | 3.06 | 3.19 | 3.5 | 3 | 4.42 |  |
| N#CC1(C#N)NC(c2cccnc2)C(C#N)(C#N)NC1c1cccnc1 (stereo not drawn) | > 100 | > 100 | > 100 | > 100 | > 100 | > 100 | > 100 | > 100 | > 100 | > 100 | > 100 | > 100 | > 100 | > 100 | > 100 | > 100 |  | > 100 |  |
| COc1ccc(N=Nc2c(C)c(C#N)c(=S)n(C3OC(COC(C)=O)C(OC(C)=O)C(OC(C)=O)C3OC(C)=O)c2C)cc1 (stereo not drawn) | > 100 | > 100 | > 100 |  |  | > 100 | > 100 | > 100 | > 100 | > 100 | > 100 | > 100 | > 100 | > 100 | > 100 | > 100 | > 100 | 63.5 | > 100 |
| COc1ccc2c(c1)CCN=C2Cc1ccccc1CCCl |  | > 100 | 55 | 67.9 | 45.4 | 42.1 | > 100 | > 100 | > 100 | 72.5 | > 100 | 64.9 | > 100 | > 100 |  | 74.6 | > 100 | > 100 | > 100 |
| c1ccc(N=C(N2CCOCC2)N(CCN2CCOCC2)c2ccccc2)cc1 | > 100 | > 100 | > 100 | > 100 | > 100 | > 100 | > 100 | > 100 | > 100 | > 100 | > 100 |  | > 100 | > 100 | > 100 | > 100 | > 100 |  | > 100 |
| CN(C)C(=S)N1C(=S)N(c2ccccc2)C(=Nc2ccccc2)C1=Nc1ccccc1 | > 100 | > 100 | > 100 | > 100 | > 100 | > 100 | > 100 |  | > 100 | > 100 | > 100 | > 100 | > 100 | > 100 | > 100 | > 100 | > 100 | > 100 | > 100 |
| Cc1nnc2sc(Cl)nn12 | 48.9 | 47.2 | 32.9 | > 100 | 20.2 | 31.6 | > 100 | 29.5 | 29.3 | > 100 | 30.7 | > 100 | 96 |  | 28.5 | 28.6 | > 100 |  |  |
| COC(=O)C(Cc1ccccc1)NC(=O)C(CCC(=O)OCc1ccccc1)NC(=O)OC(C)(C)C (stereo not drawn) |  | > 100 | > 100 | > 100 | > 100 | > 100 | > 100 | > 100 | > 100 | > 100 | > 100 | > 100 | > 100 | > 100 | > 100 | > 100 | > 100 | > 100 | > 100 |
| C=CCc1c(C)nc(C)nc1N/N=C/C=C/c1ccccc1 | > 100 | > 100 | > 100 | 97.7 | > 100 |  |  | 65.3 | 54 | > 100 | > 100 | 64.8 | 38.8 | > 100 | > 100 |  | > 100 | 99.5 | 57.3 |
| Cc1n[n+](CC(=O)c2ccccc2)c2sc(N)nn12 | > 100 | > 100 | > 100 | > 100 | > 100 |  | > 100 | > 100 | > 100 | > 100 | > 100 | > 100 | > 100 | > 100 | > 100 | > 100 | > 100 |  |  |
| C=CC(CBr)CCC(Br)C(C)(C)Br (stereo not drawn) | > 10 | > 10 | > 10 | > 10 | > 10 | > 10 | > 10 | > 10 | > 10 | > 10 | > 10 | > 10 | > 10 | > 10 |  | > 10 | > 10 | > 10 |  |
| CCSC1=N/C(=C\c2ccco2)C(NN)=N1 | > 50 | > 50 | > 50 | > 50 | > 50 |  | > 50 |  | > 50 | > 50 | > 50 | > 50 | > 50 | > 50 | > 50 | > 50 | > 50 | > 50 |  |
| Cc1ccc(/C=N/Nc2nc3ccccc3s2)s1 | > 100 | > 100 | > 100 | > 100 | > 100 | > 100 | > 100 | > 100 | > 100 | 34.3 | > 100 | > 100 | 89.4 | > 100 | > 100 | > 100 | > 100 | > 100 |  |
| CC(C)(Br)C(Br)CCC(=CCBr)CBr (mixture of isomers) | 4.68 |  | 9.16 | 6.36 | 14.1 | 26.6 | 22.3 | 13.2 | 6.66 | 4.29 | 8.9 |  | 8.89 | 4.85 |  | 10.2 | 31.1 | 13.3 | 4.69 |
